Data on 1 compound can be found in BindingDB's records for doi:10.7270/Q2CR5RSX (Vanderbilt Screening Center For Gpcrs, Ion Channels and …, 2009).

This assay has as its target T1, Muscarinic acetylcholine receptor M5 (Homo sapiens, UniProt P08912).
T1 sequence (P08912 whole entry): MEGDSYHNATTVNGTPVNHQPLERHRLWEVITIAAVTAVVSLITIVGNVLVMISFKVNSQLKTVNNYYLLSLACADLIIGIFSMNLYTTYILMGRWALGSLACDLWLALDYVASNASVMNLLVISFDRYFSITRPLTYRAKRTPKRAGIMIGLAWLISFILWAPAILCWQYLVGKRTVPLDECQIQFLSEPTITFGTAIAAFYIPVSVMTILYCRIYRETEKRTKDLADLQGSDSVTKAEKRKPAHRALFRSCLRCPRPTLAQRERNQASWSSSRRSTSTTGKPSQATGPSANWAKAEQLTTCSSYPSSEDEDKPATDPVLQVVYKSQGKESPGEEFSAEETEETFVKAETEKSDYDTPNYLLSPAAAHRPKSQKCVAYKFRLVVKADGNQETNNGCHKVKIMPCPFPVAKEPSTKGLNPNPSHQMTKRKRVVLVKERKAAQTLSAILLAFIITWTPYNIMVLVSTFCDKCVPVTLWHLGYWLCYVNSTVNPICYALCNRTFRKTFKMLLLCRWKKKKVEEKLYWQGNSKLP
Put plainly: compound effect on ACh competition at M5, biochemical, [3H]N-methylscopolamine, acetylcholine (AID 2194).

In general, EC50 refers to the concentration at which the effect is half-maximal.

`COc1ccc(CN2C(=O)C(=O)c3cc(OC(F)(F)F)ccc32)cc1` [VU0238429] returned a concentration giving a half-maximal response (EC50) of 210 nM. This lies in the sub-micromolar range.
